Experimental data published in patent US20240226175A1, “THERAPEUTIC AGENT USING GENOME-EDITED PLURIPOTENT STEM CELL” (KEIO UNIVERSITY, priority 2020, published 2024).

Assays:
Assay type in all cases: cell-based, human
[1] = system: glioma cell line U87; assay: Antitumor effect in co-culture with 5-FC (CCK-8), U87; conditions: without TSC1/TSC2
Procedure: (§1) Glioma cell line U87 (1×10^4 cells) or glioma stem cell line hG008 (1×10^4 cells) and TSC1 or TSC2 (5×10^3 cells) were co-cultured for 1 day using a low adhesive 96-well culture plate (Prime Surface 96V, manufactured by Sumitomo Bakelite Co., Ltd.), then 5-FC (2 μg/ml) was added, and cell deaths were assessed using a cell proliferation/cytotoxicity assay kit Cell Counting Kit-8 (CCK-8) 5 days later.

[2] = system: glioma stem cell line hG008; assay: Antitumor effect in co-culture with 5-FC (CCK-8), hG008; conditions: without TSC1/TSC2
Procedure: as §1

[3] = system: (yCD-NSCs); assay: Response of yCD-NSCs to 5-FU; conditions: ACTB (yCD-NSCs)

Compound	tumor cell death with 5-FC alone [1]	tumor cell death with 5-FC alone [2]	response to 5-FU [3]
Nc1nc(=O)[nH]cc1F [5-FC, 5-fluorocytosine]	no particular tumor cell death was observed	no particular tumor cell death was observed	–
O=c1[nH]cc(F)c(=O)[nH]1 [5-FU, 5-fluorouracil]	–	–	not favorable
